Results from patent publication EP0263903A1, “Method for preparing specific inhibitors of virus-specified proteases” (priority 1986, dated 1988).
Like-named read-outs stand apart in the source and are kept apart here. Residues, ends and D or L forms follow the SMILES beside them. *: point of attachment. Cbz = O=C(OCc1ccccc1)*; CH2Cl = ClC*

Tests used:
[1] = tested on: poliovirus type 2; format: cell-based, human poliomyelitisvirus type 2
[2] = tested on: rhinovirus type 1A; format: cell-based, human rhinovirus type 1A
[3] = tested on: rhinovirus type 1A; assay: Plaque inhibition assay; format: cell-based, Human rhinovirus type 1A
[4] = tested on: poliovirus type 2; format: cell-based
[5] = tested on: human HeLa-O cells
[6] = tested on: chymotrypsin; conditions: inhibitor concentration of 600 µg/mL; cited from earlier work
[7] = tested on: subtilisin BPNʹ; conditions: series of peptide chloromethyl ketones; cited from earlier work

For `CC(=O)[C@H](CC(C)C)NC(=O)[C@H](C)NC(=O)CNC(=O)[C@H](Cc1ccccc1)NC(=O)OC(C)(C)C` [Boc-Phe-Gly-Ala-LeuCH₃], the “activity in the viral cleavage assay” value [1] was “failed to show activity” and the “activity in the viral cleavage assay” value [2] was “failed to show activity”.

With `COC(=O)CCC(=O)N[C@@H](Cc1ccccc1)C(=O)NCC(=O)N[C@@H](CC(C)C)C(=O)N[C@@H](CC(C)C)C(C)=O` [MeOSuc-Phe-Gly-Leu-LeuCH₃] the “activity in the viral cleavage assay” value ([1]; 50 µg/mL) was “active”.

For `CC(=O)[C@H](CC(C)C)NC(=O)[C@H](C)NC(=O)CNC(=O)[C@H](Cc1ccccc1)NC(=O)OCc1ccccc1` [Z-Phe-Gly-Ala-LeuCH₃], the “activity in the viral cleavage assay” value ([1]; 50 µg/mL) was “active”, the plaque reduction ([3]; 50 µg/mL in agar overlays, compared to control plates) was greater than 90% and the plaque reduction [4] was greater than 90%. The “No cytotoxicity observed at concentrations up to” value [5] was greater than 1 mg/mL.

For `CC(C)C[C@H](NC(=O)[C@H](CC(C)C)NC(=O)CNC(=O)[C@H](Cc1ccccc1)NC(=O)OCc1ccccc1)C(=O)CCl` [Z-Phe-Gly-Leu-LeuCH₂Cl] (Cbz-FGLL-CH2Cl), the “Antiviral activity, as scored by 90% plaque reduction, noted at” value ([3]; HeLa cells) was 1 µg/mL and the “cytotoxicity first detected at a concentration of” value [5] was “about 15 µg/mL”.

In the case of Ac-Leu-Leu-PheCH₃, the inhibition of chymotrypsin [6] is given as “no inhibition was observed”.

In the case of “acetyl-L-phenylalanyl-L-glycyl-L-alanyl-L-leucyl chloromethyl ketone (Ac-FGAL-CH2Cl; SMILES CC(=O)N[C@@H](Cc1ccccc1)C(=O)NCC(=O)N[C@@H](C)C(=O)N[C@@H](CC(C)C)C(=O)CCl) [Ac-Phe-Gly-Ala-LeuCH₂Cl]”, the “inhibition of subtilisin BPNʹ (rate ranking among the compounds tested)” value [7] is listed as “fastest inhibitor”.
